ChEMBL document CHEMBL1909046, “DrugMatrix in vitro pharmacology data”

What was measured:
[1] = molecular target: T1, Alpha-1D adrenergic receptor (Homo sapiens, UniProt P25100); assay type: cell membranes, HEK293, Membrane; conditions: for Ki: read-out: Ki; for all read-outs here: in other assays of this panel Not Active means under 50% inhibition at 10 µM
T1 sequence (P25100 whole entry): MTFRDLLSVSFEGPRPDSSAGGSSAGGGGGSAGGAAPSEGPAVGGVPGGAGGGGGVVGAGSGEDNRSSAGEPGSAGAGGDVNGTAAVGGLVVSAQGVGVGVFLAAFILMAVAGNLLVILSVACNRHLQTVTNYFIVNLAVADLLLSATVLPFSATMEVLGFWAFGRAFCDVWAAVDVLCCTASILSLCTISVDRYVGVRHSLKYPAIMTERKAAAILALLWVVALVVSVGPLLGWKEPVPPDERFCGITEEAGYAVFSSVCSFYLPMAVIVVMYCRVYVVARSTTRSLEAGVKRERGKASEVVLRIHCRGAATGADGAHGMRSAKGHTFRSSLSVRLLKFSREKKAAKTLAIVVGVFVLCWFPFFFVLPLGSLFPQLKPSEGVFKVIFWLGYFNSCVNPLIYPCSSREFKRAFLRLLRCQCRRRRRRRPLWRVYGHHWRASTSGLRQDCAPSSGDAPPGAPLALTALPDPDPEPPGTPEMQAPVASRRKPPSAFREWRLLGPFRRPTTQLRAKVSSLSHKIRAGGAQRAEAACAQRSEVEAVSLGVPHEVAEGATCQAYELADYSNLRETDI

[2] = molecular target: Sodium-dependent noradrenaline transporter (Homo sapiens, UniProt P23975); test: DRUGMATRIX: Norepinephrine Transporter radioligand binding (ligand: [125I] RTI-55); assay type: cell membranes, MDCK, Membrane; conditions: Not Active = under 50% inhibition at 10 µM
[3] = molecular target: T2, Cytochrome P450 1A2 (Homo sapiens, UniProt P05177); conditions: bti-tn-5b1-4; note: in other assays of this panel Not Active means under 50% inhibition at 10 µM
T2 sequence (P05177 whole entry): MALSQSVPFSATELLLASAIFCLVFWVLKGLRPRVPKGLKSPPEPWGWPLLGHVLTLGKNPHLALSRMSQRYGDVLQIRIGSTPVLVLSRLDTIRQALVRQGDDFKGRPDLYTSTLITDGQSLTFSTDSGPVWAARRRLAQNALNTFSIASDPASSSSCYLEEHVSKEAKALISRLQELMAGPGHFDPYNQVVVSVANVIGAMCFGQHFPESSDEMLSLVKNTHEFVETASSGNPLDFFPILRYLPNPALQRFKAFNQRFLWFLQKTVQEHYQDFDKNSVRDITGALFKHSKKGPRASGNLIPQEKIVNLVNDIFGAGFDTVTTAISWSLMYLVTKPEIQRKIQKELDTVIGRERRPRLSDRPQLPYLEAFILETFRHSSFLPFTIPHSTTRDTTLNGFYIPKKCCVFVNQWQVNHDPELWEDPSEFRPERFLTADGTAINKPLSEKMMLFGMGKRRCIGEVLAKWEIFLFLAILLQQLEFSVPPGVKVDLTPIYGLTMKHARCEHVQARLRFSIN

[4] = molecular target: Cytochrome P450 2C9 (Homo sapiens, UniProt P11712); conditions: bti-tn-5b1-4; note: in other assays of this panel Not Active means under 50% inhibition at 10 µM
[5] = molecular target: Cytochrome P450 2D6 (Homo sapiens, UniProt P10635); conditions: bti-tn-5b1-4; note: in other assays of this panel Not Active means under 50% inhibition at 10 µM
[6] = molecular target: T3, Estrogen receptor (Homo sapiens, UniProt P03372); conditions: sf9; note: in other assays of this panel Not Active means under 50% inhibition at 10 µM
T3 sequence (P03372 whole entry): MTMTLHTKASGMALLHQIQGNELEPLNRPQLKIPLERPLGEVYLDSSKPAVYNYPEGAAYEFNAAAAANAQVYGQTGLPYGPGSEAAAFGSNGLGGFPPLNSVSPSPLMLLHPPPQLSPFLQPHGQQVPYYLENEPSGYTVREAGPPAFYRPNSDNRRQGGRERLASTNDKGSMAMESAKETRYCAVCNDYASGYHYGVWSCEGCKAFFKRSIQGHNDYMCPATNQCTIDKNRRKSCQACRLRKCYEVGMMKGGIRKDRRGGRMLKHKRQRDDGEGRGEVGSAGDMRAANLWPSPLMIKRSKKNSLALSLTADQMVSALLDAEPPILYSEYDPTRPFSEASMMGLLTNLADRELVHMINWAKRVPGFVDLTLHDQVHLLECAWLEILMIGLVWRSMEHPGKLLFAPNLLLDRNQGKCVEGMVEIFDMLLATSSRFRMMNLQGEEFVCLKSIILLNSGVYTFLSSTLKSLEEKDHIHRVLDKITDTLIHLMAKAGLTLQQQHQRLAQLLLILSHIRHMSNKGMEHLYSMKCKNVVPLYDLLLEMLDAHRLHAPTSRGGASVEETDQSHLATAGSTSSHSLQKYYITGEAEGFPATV

[7] = molecular target: Estrogen receptor beta (Homo sapiens, UniProt Q92731); conditions: sf9; note: in other assays of this panel Not Active means under 50% inhibition at 10 µM
[8] = molecular target: T4, Glucocorticoid receptor (Homo sapiens, UniProt P04150); conditions: hela s3; note: in other assays of this panel Not Active means under 50% inhibition at 10 µM
T4 sequence (P04150 whole entry): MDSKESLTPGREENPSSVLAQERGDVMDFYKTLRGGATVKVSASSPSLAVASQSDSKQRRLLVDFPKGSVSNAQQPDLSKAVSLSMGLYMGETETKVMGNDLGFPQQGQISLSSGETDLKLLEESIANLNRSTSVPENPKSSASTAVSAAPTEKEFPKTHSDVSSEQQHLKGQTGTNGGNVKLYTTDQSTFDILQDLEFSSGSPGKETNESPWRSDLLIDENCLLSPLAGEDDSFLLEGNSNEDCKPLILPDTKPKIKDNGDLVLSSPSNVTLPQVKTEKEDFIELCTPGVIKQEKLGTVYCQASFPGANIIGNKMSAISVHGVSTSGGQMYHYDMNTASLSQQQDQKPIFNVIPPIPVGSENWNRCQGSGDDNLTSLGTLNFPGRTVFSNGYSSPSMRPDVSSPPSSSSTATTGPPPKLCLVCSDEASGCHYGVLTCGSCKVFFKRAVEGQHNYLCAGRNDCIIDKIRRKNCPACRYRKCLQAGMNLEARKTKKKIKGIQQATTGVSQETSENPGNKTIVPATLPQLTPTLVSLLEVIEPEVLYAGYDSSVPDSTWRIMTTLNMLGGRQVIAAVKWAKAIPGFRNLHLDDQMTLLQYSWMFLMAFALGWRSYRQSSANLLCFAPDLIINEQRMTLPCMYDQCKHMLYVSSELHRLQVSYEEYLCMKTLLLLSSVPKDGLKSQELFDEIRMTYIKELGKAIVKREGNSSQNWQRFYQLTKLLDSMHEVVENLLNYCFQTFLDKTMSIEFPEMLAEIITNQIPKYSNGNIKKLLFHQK

[9] = molecular target: Voltage-gated inwardly rectifying potassium channel KCNH2 (Homo sapiens, UniProt Q12809); conditions: hek293; note: in other assays of this panel Not Active means under 50% inhibition at 10 µM
[10] = molecular target: Cytochrome P450 3A4 (Homo sapiens, UniProt P08684); conditions: bti-tn-5b1-4; note: in other assays of this panel Not Active means under 50% inhibition at 10 µM
Sequence of Cytochrome P450 3A4 (P08684 whole entry): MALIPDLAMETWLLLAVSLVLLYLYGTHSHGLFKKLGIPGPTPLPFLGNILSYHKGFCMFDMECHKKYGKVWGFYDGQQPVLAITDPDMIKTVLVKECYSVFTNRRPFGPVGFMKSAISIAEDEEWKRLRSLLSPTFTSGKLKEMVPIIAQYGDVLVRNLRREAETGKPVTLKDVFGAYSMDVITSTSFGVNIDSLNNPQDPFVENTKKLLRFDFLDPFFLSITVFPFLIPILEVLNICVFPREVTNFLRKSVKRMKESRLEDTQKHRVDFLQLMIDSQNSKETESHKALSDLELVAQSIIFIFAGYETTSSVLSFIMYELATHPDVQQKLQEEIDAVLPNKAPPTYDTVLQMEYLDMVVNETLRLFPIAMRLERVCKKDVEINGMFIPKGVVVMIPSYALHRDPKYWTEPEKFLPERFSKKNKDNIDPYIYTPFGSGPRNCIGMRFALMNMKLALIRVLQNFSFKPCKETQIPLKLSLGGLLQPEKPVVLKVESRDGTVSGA

Sequence of Sodium-dependent noradrenaline transporter (P23975 whole entry): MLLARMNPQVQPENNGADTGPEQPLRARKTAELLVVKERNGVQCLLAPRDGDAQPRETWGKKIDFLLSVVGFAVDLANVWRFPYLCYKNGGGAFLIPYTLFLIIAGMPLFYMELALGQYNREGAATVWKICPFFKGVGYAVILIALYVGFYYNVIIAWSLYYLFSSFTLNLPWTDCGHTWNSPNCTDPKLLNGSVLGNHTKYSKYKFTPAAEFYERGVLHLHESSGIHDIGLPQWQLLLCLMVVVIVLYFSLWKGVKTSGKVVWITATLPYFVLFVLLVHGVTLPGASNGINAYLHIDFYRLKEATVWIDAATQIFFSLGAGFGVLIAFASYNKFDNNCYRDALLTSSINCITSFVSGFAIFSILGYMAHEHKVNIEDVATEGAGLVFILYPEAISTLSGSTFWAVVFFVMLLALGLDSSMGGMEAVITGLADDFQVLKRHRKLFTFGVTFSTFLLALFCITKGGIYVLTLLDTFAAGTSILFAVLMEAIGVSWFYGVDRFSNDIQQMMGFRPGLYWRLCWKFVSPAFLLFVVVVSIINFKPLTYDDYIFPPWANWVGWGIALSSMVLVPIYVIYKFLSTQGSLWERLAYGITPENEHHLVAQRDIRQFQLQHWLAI
Sequence of Estrogen receptor beta (Q92731 whole entry): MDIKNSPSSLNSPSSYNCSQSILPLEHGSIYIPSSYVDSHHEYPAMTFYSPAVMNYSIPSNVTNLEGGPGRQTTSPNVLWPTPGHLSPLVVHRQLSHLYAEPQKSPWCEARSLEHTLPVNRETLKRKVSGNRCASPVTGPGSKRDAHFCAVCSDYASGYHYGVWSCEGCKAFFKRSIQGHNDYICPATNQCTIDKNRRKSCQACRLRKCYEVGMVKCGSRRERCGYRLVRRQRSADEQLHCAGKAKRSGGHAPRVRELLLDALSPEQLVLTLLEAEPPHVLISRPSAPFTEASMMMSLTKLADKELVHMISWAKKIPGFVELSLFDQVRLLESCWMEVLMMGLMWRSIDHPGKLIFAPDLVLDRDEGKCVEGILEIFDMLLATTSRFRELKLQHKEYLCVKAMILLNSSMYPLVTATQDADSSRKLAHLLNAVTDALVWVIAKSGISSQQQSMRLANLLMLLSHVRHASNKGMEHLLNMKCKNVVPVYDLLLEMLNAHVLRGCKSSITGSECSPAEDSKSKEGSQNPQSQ
Sequence of Voltage-gated inwardly rectifying potassium channel KCNH2 (Q12809 whole entry): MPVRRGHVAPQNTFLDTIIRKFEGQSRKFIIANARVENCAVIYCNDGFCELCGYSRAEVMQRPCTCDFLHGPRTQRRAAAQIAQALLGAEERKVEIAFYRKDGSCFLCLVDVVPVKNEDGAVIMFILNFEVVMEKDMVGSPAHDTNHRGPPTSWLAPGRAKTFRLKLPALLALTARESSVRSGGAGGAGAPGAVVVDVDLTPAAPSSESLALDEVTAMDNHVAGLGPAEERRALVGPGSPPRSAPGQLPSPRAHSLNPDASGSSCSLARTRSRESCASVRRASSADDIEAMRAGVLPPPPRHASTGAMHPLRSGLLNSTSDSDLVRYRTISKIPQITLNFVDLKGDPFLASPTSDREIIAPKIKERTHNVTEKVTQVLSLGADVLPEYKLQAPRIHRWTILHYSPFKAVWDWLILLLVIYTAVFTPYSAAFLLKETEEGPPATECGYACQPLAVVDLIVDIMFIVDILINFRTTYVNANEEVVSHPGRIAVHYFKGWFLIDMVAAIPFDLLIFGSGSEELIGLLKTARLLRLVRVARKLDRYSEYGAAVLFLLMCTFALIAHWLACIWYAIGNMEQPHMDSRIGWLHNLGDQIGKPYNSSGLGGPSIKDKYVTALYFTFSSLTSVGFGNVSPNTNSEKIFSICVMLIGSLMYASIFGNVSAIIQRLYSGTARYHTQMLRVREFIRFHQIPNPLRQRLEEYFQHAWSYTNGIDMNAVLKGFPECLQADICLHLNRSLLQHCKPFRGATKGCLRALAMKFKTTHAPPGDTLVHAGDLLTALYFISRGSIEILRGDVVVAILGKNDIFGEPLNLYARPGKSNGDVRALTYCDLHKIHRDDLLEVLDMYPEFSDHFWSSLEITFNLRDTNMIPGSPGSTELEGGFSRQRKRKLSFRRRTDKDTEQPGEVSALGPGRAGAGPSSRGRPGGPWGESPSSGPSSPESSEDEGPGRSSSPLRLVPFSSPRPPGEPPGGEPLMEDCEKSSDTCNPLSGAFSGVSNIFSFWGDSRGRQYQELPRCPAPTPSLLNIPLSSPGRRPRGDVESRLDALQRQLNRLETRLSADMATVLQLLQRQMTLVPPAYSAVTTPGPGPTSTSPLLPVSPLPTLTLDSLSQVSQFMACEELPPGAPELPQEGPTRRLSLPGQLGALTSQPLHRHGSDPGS
Sequence of Cytochrome P450 2C9 (P11712 whole entry): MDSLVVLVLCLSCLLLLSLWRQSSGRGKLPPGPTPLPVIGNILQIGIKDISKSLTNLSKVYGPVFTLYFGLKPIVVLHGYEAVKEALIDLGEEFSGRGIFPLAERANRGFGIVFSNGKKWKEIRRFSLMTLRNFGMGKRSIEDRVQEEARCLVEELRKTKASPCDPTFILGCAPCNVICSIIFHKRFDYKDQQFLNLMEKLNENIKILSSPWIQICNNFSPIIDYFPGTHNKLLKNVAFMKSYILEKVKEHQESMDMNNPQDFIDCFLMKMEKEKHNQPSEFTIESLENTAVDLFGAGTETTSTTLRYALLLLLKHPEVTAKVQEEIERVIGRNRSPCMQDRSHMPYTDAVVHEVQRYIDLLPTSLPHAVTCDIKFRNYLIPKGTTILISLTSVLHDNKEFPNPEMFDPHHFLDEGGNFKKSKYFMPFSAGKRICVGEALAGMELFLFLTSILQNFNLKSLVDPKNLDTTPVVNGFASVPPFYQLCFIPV
Sequence of Cytochrome P450 2D6 (P10635 whole entry): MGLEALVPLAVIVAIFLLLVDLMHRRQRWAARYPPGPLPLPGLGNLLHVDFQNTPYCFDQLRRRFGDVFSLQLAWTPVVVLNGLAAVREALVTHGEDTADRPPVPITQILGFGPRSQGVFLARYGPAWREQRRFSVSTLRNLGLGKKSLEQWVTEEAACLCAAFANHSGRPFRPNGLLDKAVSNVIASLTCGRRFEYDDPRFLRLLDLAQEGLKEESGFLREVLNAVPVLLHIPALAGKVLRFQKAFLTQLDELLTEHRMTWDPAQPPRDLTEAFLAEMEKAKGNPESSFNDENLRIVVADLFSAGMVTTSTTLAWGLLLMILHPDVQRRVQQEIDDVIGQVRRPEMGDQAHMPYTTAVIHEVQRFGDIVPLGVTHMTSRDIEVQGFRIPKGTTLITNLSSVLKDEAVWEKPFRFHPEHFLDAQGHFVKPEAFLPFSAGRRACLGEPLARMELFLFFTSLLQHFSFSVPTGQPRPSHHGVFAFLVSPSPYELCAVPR

SMILES	IC50 ([1]; hek293)	IC50 ([2]; mdck)	IC50 [3]	Ki [3]	IC50 [4]	Ki [4]	IC50 [5]	Ki [5]	IC50 [6]	IC50 [7]	IC50 [8]	IC50 [9]	Ki [9]	IC50 ([1]; read-out: IC50) [µM]	Ki [1] [µM]	IC50 ([2]; read-out: IC50) [µM]	Ki ([2]; read-out: Ki) [µM]	IC50 [10]	Ki [10]
CCOC(=O)[C@H](CCc1ccccc1)N[C@@H](C)C(=O)N1[C@H](C(=O)O)C[C@@H]2CCC[C@@H]21	Not Active	Not Active	Not Active	Not Active	Not Active	Not Active	Not Active	Not Active	Not Active	Not Active	Not Active	Not Active	Not Active	–	–	–	–	–	–
Clc1ccccc1C(c1ccccc1)(c1ccccc1)n1ccnc1 [CLOTRIMAZOLE]	–	–	Not Active	Not Active	–	–	Not Active	Not Active	Not Active	Not Active	–	Not Active	Not Active	15	7.38	7.94	7.87	–	–
COC(=O)c1ccc(O)cc1 [METHYLPARABEN]	Not Active	–	Not Active	Not Active	Not Active	Not Active	Not Active	Not Active	Not Active	Not Active	Not Active	Not Active	Not Active	–	–	–	–	Not Active	Not Active
CN1CCN2c3ccccc3Cc3ccccc3C2C1 (stereo not given) [MIANSERIN]	–	–	–	–	Not Active	Not Active	Not Active	Not Active	Not Active	Not Active	Not Active	Not Active	Not Active	0.083	0.041	–	–	Not Active	Not Active
CC(C)(O)c1ccccc1CC[C@@H](SCC1(CC(=O)O)CC1)c1cccc(/C=C/c2ccc3ccc(Cl)cc3n2)c1 [MONTELUKAST]	Not Active	–	Not Active	Not Active	Not Active	Not Active	Not Active	Not Active	Not Active	Not Active	Not Active	Not Active	Not Active	–	–	–	–	Not Active	Not Active
COC(=O)C1=C(C)NC(C)=C(C(=O)OC)C1c1ccccc1[N+](=O)[O-] [NIFEDIPINE]	Not Active	Not Active	–	–	–	–	–	–	Not Active	Not Active	Not Active	–	–	–	–	–	–	–	–
CC(=O)[C@H]1CC[C@H]2[C@@H]3CCC4=CC(=O)CC[C@]4(C)[C@H]3CC[C@]12C [PROGESTERONE]	Not Active	Not Active	Not Active	Not Active	Not Active	Not Active	Not Active	Not Active	Not Active	Not Active	–	–	–	–	–	–	–	Not Active	Not Active
CC(=O)S[C@@H]1CC2=CC(=O)CC[C@]2(C)[C@H]2CC[C@@]3(C)[C@@H](CC[C@@]34CCC(=O)O4)[C@H]12 [SPIRONOLACTONE]	Not Active	Not Active	–	–	–	–	–	–	Not Active	Not Active	–	Not Active	Not Active	–	–	–	–	Not Active	Not Active
c1ccc2[nH]c(-c3cscn3)nc2c1 [THIABENDAZOLE]	Not Active	Not Active	–	–	Not Active	Not Active	Not Active	Not Active	Not Active	Not Active	Not Active	Not Active	Not Active	–	–	–	–	–	–
Cc1ccc(C(=O)C(C)CN2CCCCC2)cc1 (stereo not given) [TOLPERISONE]	Not Active	Not Active	Not Active	Not Active	Not Active	Not Active	Not Active	Not Active	Not Active	Not Active	–	Not Active	Not Active	–	–	–	–	Not Active	Not Active
NC(CO)(CO)CO [TROMETHAMINE]	Not Active	Not Active	Not Active	Not Active	Not Active	Not Active	Not Active	Not Active	Not Active	–	Not Active	Not Active	Not Active	–	–	–	–	Not Active	Not Active
COC(=O)[C@@H]1[C@H]2C[C@H]3c4[nH]c5ccccc5c4CCN3C[C@@H]2CC[C@@H]1O [YOHIMBINE]	–	Not Active	–	–	–	–	–	–	Not Active	Not Active	–	Not Active	Not Active	–	–	–	–	–	–
